The results in this text go back to patent US12114655B2, “Agricultural compositions and methods of use thereof” (Valent U.S.A. LLC, priority 2019, dated 2024).

The structures appear in SMILES notation.

The subject of the assay is corn. In words: Spray chamber treatment of corn plots grown to 12 inches: efficacy of clethodim with or without mannitol or sorbitol. Type of assay: in vivo. As to conditions: 14 days after treatment; clethodim 55.4 g/HA, mannitol or sorbitol 6800 g/HA where present; all compositions with 1% v/v Agridex and 0.25% v/v Induce; corn 12 inches in height. As to the method:
4 trials were conducted on the efficacy of clethodim with or without mannitol or sorbitol. Specifically, 4 plots of corn were grown to 12 inches in height. These plots were placed in a spray chamber for treatment. All compositions contained 1% v/v of Agridex® and 0.25% v/v of Induce®. Treatments and results can be found in Table 1, below.

With `CCSC(C)CC1CC(=O)C(/C(CC)=N/OC/C=C/Cl)=C(O)C1` (stereo not shown) [Clethodim, clethodim], the “Days After Treatment (% control) 14” value is on record as 20.8 % control.
